Activity calls are given as the source filed them. The rule behind the calls is not given here.
Columns and labels:
[1] = target: Muscarinic acetylcholine receptor M3 (Homo sapiens, UniProt P20309); assay: Displacement of [3H]N-methylscopolamine from human recombinant muscarinic M3 receptor expressed in CHO cells; assay type: cell-based
[2] = target: T1, Muscarinic acetylcholine receptor M2 (Homo sapiens, UniProt P08172); assay: Displacement of [3H]N-methylscopolamine from human recombinant muscarinic M2 receptor expressed in CHO cells; assay type: cell-based
T1 sequence (P08172 whole entry): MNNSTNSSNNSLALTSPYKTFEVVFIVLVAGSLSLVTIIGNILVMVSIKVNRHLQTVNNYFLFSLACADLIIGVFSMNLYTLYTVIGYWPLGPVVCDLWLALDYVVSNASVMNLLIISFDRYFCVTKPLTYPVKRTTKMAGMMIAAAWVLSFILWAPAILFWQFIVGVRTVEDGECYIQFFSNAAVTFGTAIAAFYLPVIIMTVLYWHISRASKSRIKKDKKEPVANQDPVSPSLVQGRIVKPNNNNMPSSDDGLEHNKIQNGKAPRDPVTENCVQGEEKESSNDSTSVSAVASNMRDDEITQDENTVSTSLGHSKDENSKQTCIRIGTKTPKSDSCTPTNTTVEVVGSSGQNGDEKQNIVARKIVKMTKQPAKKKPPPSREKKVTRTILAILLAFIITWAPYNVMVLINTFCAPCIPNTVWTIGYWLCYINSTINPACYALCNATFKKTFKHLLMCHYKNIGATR

Cavia porcellus = species on record: Cavia porcellus; assay: (§1) Antagonist activity at muscarinic M2 receptor in carbachol-stimulated guinea pig left atrium; assay type: functional, tissue-based; conditions: Cardiac atrium
[3] = target: Muscarinic acetylcholine receptor M3 (Cavia porcellus, UniProt Q8VH26); assay: Antagonist activity at muscarinic M3 receptor in carbachol-stimulated guinea pig trachea; assay type: functional; conditions: read-out: pA2 (converted)
Chain of Muscarinic acetylcholine receptor M3 (Cavia porcellus, UniProt Q8VH26) (Q8VH26 whole entry): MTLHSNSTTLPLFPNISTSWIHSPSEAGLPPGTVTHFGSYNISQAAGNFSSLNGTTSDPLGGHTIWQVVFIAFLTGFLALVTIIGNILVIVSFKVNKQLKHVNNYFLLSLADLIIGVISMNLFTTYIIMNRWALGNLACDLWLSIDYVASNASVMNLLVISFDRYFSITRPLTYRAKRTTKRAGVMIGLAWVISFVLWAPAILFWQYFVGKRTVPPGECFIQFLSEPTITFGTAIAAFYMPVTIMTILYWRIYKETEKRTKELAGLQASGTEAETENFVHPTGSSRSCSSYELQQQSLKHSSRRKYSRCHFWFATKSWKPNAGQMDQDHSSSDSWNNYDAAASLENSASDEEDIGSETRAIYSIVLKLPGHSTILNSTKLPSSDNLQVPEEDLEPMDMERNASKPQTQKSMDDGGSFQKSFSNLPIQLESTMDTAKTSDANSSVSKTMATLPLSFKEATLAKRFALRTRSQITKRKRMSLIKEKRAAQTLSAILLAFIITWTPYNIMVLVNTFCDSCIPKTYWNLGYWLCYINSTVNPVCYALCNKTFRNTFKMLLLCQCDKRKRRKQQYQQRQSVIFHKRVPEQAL

[4] = as §1; assay type: functional, tissue-based; conditions: Cavia porcellus, Cardiac atrium; read-out: pA2 (converted)
[5] = target: Muscarinic acetylcholine receptor M3 (Cavia porcellus) (UniProt Q8VH26); assay: Reversible inhibition of muscarinic M3 receptor in electrically-stimulated guinea pig trachea assessed as recovery of maximal effect at >280 min; assay type: tissue-based; parameters: scale not given: the % may be the effect or the level left
Chain of Muscarinic acetylcholine receptor M3 (Cavia porcellus) (Q8VH26 1-587): as the sequence (Q8VH26 whole entry) above

Chain of Muscarinic acetylcholine receptor M3 (Homo sapiens, UniProt P20309) (P20309 whole entry): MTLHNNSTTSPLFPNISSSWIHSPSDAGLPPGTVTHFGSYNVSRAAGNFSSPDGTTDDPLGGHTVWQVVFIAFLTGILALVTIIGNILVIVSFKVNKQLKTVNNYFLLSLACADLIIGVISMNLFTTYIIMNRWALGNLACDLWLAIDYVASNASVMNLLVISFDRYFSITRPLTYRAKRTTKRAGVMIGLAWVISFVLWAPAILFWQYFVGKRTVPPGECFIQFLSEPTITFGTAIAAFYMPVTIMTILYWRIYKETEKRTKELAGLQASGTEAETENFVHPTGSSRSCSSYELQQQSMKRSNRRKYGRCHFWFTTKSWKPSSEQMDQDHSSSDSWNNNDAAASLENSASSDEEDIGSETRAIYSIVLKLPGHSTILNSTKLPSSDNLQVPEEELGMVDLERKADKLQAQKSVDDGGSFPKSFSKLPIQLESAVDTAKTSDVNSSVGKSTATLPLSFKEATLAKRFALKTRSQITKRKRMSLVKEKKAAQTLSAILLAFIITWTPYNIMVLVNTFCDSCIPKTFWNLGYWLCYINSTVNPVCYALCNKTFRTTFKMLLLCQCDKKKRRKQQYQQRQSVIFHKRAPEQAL

## COC1(C#CC(C)(c2ccccc2)c2ccccc2)CN2CCC1CC2 (stereo not given)
[1]
  Ki: 15.8 nM
[2]
  Ki: 39.8 nM
Cavia porcellus
  Activity: Active

## CC(C)[N+]1(C)C2CCC1CC(OC(=O)[C@H](CO)c1ccccc1)C2 (stereo not given in full)
Cavia porcellus
  Activity: Active

## COC(C#C[C@@]1(OC)CN2CCC1CC2)(c1ccccc1)c1ccccc1
[1]
  Ki: 10 nM
[2]
  Ki: 158 nM
Cavia porcellus
  Activity: Active

## CO[C@]1(C#C[C@](O)(c2ccccc2)C2CCCCCC2)CN2CCC1CC2
[1]
  Ki: 0.316 nM
[2]
  Ki: 2.51 nM
[3]
  Kb: 6.31 nM
[4]
  Kb: 5.01 nM
[5]
  Activity: 20%

## CO[C@]1(C#CC(O)(c2ccccc2)c2ccccc2)CN2CCC1CC2
Cavia porcellus
  Activity: Active

## C[N+]1(C)[C@@H]2C[C@@H](OC(=O)C(O)(c3cccs3)c3cccs3)C[C@H]1[C@@H]1O[C@@H]12
Cavia porcellus
  Activity: Active

## CO[C@]1(C#C[C@](O)(c2ccccc2)C2CCCCCCC2)CN2CCC1CC2
[1]
  Ki: 0.316 nM
[2]
  Ki: 3.16 nM
[3]
  Kb: 6.31 nM
[4]
  Kb: 31.6 nM
[5]
  Activity: 20%

## CO[C@]1(C#C[C@@](O)(c2ccccc2)C2CCCCC2)CN2CCC1CC2
Cavia porcellus
  Activity: Active

## COC1(C#CC(C#N)(c2ccccc2)c2ccccc2)CN2CCC1CC2 (stereo not given)
[1]
  Ki: 2.51 nM
[2]
  Ki: 6.31 nM
Cavia porcellus
  Activity: Active

## CO[C@]1(C#C[C@@](O)(c2ccccc2)C2CCCCCCC2)CN2CCC1CC2
[1]
  Ki: 2.51 nM
[2]
  Ki: 31.6 nM
Cavia porcellus
  Activity: Active

## CO[C@]1(C#C[C@@](O)(c2ccccc2)C2CCCCCC2)CN2CCC1CC2
[1]
  Ki: 2 nM
[2]
  Ki: 20 nM
Cavia porcellus
  Activity: Active

## CO[C@]1(C#C[C@](O)(c2ccccc2)C2CCCCC2)CN2CCC1CC2
Cavia porcellus
  Activity: Active

Reference: ChEMBL document CHEMBL1144745, “Alkyne-quinuclidine derivatives as potent and selective muscarinic antagonists for the treatment of COPD” (Bioorg Med Chem Lett, 2008)
